Molecular target: full-length TDP-43 (TDP-43) (Homo sapiens, UniProt Q13148)
Assay: isothermal titration calorimetry
Type: binding

full-length TDP-43 (TDP-43), sequence (Q13148 whole entry): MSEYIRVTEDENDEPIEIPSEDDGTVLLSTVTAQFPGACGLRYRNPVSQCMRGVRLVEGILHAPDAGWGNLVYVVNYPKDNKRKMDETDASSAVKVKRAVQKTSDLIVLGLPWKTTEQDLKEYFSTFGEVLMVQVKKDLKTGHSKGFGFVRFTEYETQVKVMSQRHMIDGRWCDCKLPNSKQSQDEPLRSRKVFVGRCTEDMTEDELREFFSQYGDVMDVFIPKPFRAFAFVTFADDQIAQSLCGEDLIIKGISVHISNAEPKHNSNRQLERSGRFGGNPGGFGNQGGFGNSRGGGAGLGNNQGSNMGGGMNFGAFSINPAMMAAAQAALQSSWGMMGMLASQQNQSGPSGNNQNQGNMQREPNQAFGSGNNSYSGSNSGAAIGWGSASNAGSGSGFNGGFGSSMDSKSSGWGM

`O=C(O[C@@H]1Cc2c(O)cc(O)cc2O[C@@H]1c1cc(O)c(O)c(O)c1)c1cc(O)c(O)c(O)c1` [epigallocatechin gallate] showed a Kd of 7.8 µM.

Reference: doi:10.1101/2023.12.22.573011v1 (biorxiv, 2023)
